These results are taken from PMC4836799, “Experimental and Theoretical Evaluation of the Ethynyl Moiety as a Halogen Bioisostere” (ACS Chemical Biology, 2015).

The target of assay [1] is T1, p53-Y220C DNA-binding domain (Homo sapiens, UniProt P04637, M133L/N239Y/N268D/V203A/Y220C).
T1 construct: made in house
Put plainly: Competition ITC with PK5174 (1) as coupling ligand. As for the experimental part: We assessed the binding of 3 to the stabilized DNA-binding domain of the p53 mutant Y220C (residues 94–312) using an array of biophysical techniques. […] Because the competition titration could not be performed at a c-value of 2 or higher, it was not possible to reliably decompose ΔG into ΔH and ΔS.[25]
All ITC experiments were conducted using a Microcal iTC200 calorimeter as previously described.[14] Briefly, protein and compounds were dissolved in 25 mM KPi, pH 7.2, 150 mM NaCl, 1 mM TCEP in 5% (v/v) DMSO. The cell unit contained 80 μM protein, and 2 mM compound was used for the syringe. The ITC competition experiment was conducted using 500 μM of compound 3 and 50 μM protein for the cell sample and 2 mM of compound 1 in the syringe. The actual and apparent binding constants for 1 were calculated with MicroCal Origin software using a standard one-site model. The binding constant of 3 was then calculated using an equation for ITC displacement titrations described by Zhang and Zhang[24] [drawing 2]

In assay [2] the target is T2, T-p53C-Y220C (Homo sapiens, UniProt P04637, M133L/N239Y/N268D/V203A/Y220C).
T2 construct: made in house
Put plainly: Differential scanning fluorimetry (DSF). The class given is binding. The settings on record: 10 μM protein. As to the method: The effect of compounds on the melting temperature of T-p53C-Y220C were monitored using SYPRO Orange (Invitrogen, USA) as a fluorescent probe, which quantitatively binds to hydrophobic protein patches exposed upon thermal denaturation. Real-time melt analysis was performed using a Corbett Rotor-Gene 6000 real-time qPCR thermocycler. Excitation and emission filters were set to 460 and 510 nm, respectively. Heating from 28 to 60 °C, a constant heating rate of 270 K/h was applied. The protein (final concentration of 10 μM) was briefly mixed with SYPRO orange (10x) in buffer (25 mM KPi pH 7.2, 150 mM NaCl, 1 mM TCEP), and compound (5 mM) dissolved in DMSO was added to give a final compound concentration of 250 μM in 5% (v/v) DMSO. The melting temperature (Tm) of the protein (10 μM) in the presence of compounds was determined from the inflection point of the melting curve. Melting temperatures were compared with control samples without compound (yielding ΔTm DSF). All samples were measured in triplicate.

Each structure is given as a SMILES string. Where “and” joins values, the source holds several entries; their conditions need not be identical. Equal entries are not always repeated.

Consider `C#Cc1cc(C#CCOc2ccccc2)cc(CN2CCC(N(CC)CC)CC2)c1O` [PK5211, 2-((4-(diethylamino)piperidin-1-yl)methyl)-6-ethynyl-4-(3-phenoxyprop-1-ynyl)phenol], for which, in assay [1] (competition with PK5174 (1), 500 μM compound 3, equation of Zhang and Zhang, read-out: KD determined indirectly by competition ITC), the Kd is ~270 µM and 271 µM. Moreover, the loss in affinity result in assay [1] (ethynyl compound 3 versus iodo compound 2) is “approximately 13 fold”. Also, the results for the “thermal stabilization of the mutant protein (Tm)” value in assay [2] and in assay [2] (listed as 3) were “concentration-dependent thermal stabilization” and “concentration-dependent increase of the protein melting point”, respectively.
